The results in this text go back to ChEMBL document CHEMBL4665911, “Novel Arginase Inhibitors for Treating Cancer and Respiratory Inflammatory Diseases” (ACS Med Chem Lett, 2020).

Molecules are shown by their SMILES.

In this test the target is T1, Arginase-1 (Homo sapiens, UniProt P05089).
T1 sequence (P05089 whole entry): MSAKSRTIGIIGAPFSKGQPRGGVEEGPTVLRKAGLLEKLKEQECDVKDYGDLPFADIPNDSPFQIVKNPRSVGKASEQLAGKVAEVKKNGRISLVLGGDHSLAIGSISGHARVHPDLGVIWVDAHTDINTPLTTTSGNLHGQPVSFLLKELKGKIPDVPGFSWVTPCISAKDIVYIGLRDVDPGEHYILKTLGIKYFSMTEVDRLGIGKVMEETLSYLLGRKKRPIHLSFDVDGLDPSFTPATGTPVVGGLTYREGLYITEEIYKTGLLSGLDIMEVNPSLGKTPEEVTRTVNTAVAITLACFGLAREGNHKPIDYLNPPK
As to the kind of experiment: Inhibition of human recombinant arginase 1 expressed in Escherichia coli using thioarginine by Ellman's assay. (In general: Ellman's reagent forms a yellow product with free thiols.)

As usually defined, the IC50 is the point on the concentration scale where inhibition reaches its midpoint. As to `N[C@H]1CCN[C@@](CCCCB(O)O)(C(=O)O)C1`, the IC50 came to 30 nM.
